Measurements reported in ChEMBL document CHEMBL2010689 (J Med Chem, 2012).
Active and inactive are the calls of the source. The rule behind the calls is not given here.

Legend:
[1] = Metabolic stability in rat liver S9 fraction assessed as compound remaining after 2 hrs; type: ADME, subcellular; details: read-out: Stability
[2] = target: Substance-P receptor (Homo sapiens) (UniProt P25103); assay: Inhibition of neurokinin NK1 receptor at 10 uM
[3] = Antitumor activity against human U251MG cells xenografted in athymic nude mouse assessed as tumor growth inhibition at 10 mg/kg, po bid measured on day 29 relative to control; type: functional; details: U-251, 696 h, read-out: GI
[4] = Antiangiogenic activity in BAEC assessed as inhibition of FGF-induced migration; type: functional; details: Bos taurus
[5] = tested on: HUVEC; assay: Antiangiogenic activity in HUVEC assessed as inhibition of angiopoietin 1-induced chemotaxis at > = 50 nM by boyden chamber assay; type: functional, cell-based; details: Homo sapiens
[6] = target: Hepatocyte growth factor receptor (Homo sapiens) (UniProt P08581); assay: Inhibition of cMET at 1 uM
[7] = Antitumor activity against human U251MG cells xenografted in athymic nude mouse assessed as tumor growth inhibition at 30 mg/kg, po bid measured on day 29 relative to control; type: functional; details: U-251, 696 h, read-out: GI
[8] = tested on: P388; assay: Antitumor activity against mouse P388 cells xenografted in DBA/2 mouse assessed as mean survival at 30 mg/kg, po bid (reference value: 14 days); type: functional
[9] = tested on: P388; assay: Antitumor activity against mouse P388 cells xenografted in DBA/2 mouse assessed as mean survival at 30 mg/kg, po bid for 7 days followed by readministeration after 7 days; type: functional
[10] = target: Serine/threonine-protein kinase Chk2 (Homo sapiens, UniProt O96017); assay: Inhibition of human CHK2 using ATP as substrate
[11] = Antitumor activity against human U251MG cells xenografted in athymic nude mouse assessed as complete tumor regression at 10 mg/kg, po bid; type: functional, U-251
[12] = tested on: A-375; assay: Antitumor activity against human A375 cells xenografted in athymic nude mouse assessed as partial tumor regression at 10 mg/kg, po bid; type: functional
[13] = tested on: A-375; assay: Antitumor activity against human A375 cells xenografted in athymic nude mouse assessed as partial tumor regression at 1 mg/kg, po bid; type: functional
[14] = target: Tyrosine-protein kinase Blk (Mus musculus, UniProt P16277); assay: Inhibition of mouse BLK using ATP as substrate
[15] = Antitumor activity against human U251MG cells xenografted in athymic nude mouse assessed as partial tumor regression at 10 mg/kg, po bid; type: functional, U-251
[16] = target: Receptor-type tyrosine-protein kinase FLT3 (Homo sapiens, UniProt P36888); assay: Inhibition of human FLT3 using ATP as substrate
[17] = tested on: P388; assay: Antitumor activity against mouse P388 cells xenografted in DBA/2 mouse assessed as mean survival at 30 mg/kg, po qd for 7 days followed by readministeration
[18] = Apparent permeability across human Caco2 cells; type: ADME, cell-based; details: Caco-2
[19] = Antitumor activity against human U251MG cells xenografted in athymic nude mouse assessed as partial tumor regression at 1 mg/kg, po bid; type: functional, U-251
[20] = target: Proto-oncogene tyrosine-protein kinase receptor Ret (Homo sapiens, UniProt P07949); assay: Inhibition of human RET using ATP as substrate
[21] = target: Macrophage colony-stimulating factor 1 receptor (Homo sapiens, UniProt P07333); assay: Inhibition of human FMS using ATP as substrate
[22] = Antitumor activity against human U251MG cells xenografted in athymic nude mouse assessed as complete tumor regression at 3 mg/kg, po bid; type: functional, U-251
[23] = target: Aurora kinase A (Homo sapiens, UniProt O14965); assay: Inhibition of human Aurora-A using ATP as substrate
[24] = target: Fibroblast growth factor receptor 3 (Homo sapiens, UniProt P22607); assay: Inhibition of human FGFR3 using ATP as substrate
[25] = tested on: P388; assay: Antitumor activity against mouse P388 cells xenografted in DBA/2 mouse assessed as mean survival at 30 mg/kg, po bid for 14 days followed by readministeration after 7 days; type: functional
[26] = Antiangiogenic activity in HMVEC assessed as inhibition of VEGF-induced survival; type: functional, Homo sapiens
[27] = Inhibition of CDK at 1 uM
[28] = target: Fibroblast growth factor receptor 1 (Homo sapiens, UniProt P11362); assay: Inhibition of human FGFR1 using ATP as substrate
[29] = target: Casein kinase I isoform alpha (Homo sapiens, UniProt P48729); assay: Inhibition of CK1 using ATP as substrate
[30] = Oral bioavailability in cynomolgus monkey at 3 mg/kg; type: ADME, organism-based, Macaca fascicularis; details: in vivo
[31] = target: Muscarinic acetylcholine receptor M4 (Homo sapiens) (UniProt P08173); details: 10 uM
Description: Inhibition of muscarinic M4 receptor at 10 uM

[32] = tested on: P388; assay: Antitumor activity against mouse P388 cells xenografted in DBA/2 mouse assessed as mean survival at 30 mg/kg, po bid for 7 days followed by readministeration after 14 days; type: functional
[33] = Clearance in cynomolgus monkey at 0.5 mg/kg, iv; type: ADME, organism-based, Macaca fascicularis; set-up: dose 0.5 mg/kg, route intravenous; details: in vivo

Chain of Receptor-type tyrosine-protein kinase FLT3 (P36888 whole entry): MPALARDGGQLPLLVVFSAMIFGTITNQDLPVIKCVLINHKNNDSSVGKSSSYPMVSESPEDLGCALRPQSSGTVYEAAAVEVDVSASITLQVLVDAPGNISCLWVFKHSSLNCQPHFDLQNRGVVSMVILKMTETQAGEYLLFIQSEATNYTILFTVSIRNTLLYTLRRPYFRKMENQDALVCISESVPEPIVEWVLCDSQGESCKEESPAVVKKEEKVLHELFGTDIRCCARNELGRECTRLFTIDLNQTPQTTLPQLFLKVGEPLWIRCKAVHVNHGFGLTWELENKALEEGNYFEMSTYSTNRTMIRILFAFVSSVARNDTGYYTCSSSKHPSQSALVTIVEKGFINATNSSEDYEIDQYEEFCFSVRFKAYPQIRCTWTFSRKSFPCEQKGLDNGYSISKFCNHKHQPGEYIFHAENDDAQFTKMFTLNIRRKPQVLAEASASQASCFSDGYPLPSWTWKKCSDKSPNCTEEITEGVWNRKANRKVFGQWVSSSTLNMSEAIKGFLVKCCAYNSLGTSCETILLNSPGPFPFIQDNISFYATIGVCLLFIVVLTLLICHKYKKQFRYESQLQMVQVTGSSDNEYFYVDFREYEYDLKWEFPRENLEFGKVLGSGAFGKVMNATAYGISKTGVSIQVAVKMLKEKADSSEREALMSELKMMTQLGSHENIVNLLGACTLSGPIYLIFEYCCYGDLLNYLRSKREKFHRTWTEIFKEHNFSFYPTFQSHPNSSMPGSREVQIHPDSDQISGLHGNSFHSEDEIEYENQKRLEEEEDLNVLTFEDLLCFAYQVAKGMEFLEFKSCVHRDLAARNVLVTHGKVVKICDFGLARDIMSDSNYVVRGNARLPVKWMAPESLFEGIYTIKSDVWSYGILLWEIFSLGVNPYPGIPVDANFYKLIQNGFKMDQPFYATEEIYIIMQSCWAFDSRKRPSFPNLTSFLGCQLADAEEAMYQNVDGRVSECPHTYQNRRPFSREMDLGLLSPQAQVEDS
Chain of Substance-P receptor (Homo sapiens) (P25103 whole entry): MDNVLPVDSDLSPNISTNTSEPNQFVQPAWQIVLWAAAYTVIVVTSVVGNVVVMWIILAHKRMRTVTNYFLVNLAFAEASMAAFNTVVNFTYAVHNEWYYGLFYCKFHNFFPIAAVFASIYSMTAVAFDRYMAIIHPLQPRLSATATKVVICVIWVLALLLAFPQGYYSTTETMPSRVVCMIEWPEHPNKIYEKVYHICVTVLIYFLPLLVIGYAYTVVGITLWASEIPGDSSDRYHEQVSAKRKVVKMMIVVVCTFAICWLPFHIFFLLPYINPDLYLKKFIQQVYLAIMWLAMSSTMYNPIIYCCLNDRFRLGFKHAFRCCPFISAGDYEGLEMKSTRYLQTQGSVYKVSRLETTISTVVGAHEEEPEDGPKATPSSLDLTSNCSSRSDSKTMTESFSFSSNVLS
Chain of Aurora kinase A (O14965 whole entry): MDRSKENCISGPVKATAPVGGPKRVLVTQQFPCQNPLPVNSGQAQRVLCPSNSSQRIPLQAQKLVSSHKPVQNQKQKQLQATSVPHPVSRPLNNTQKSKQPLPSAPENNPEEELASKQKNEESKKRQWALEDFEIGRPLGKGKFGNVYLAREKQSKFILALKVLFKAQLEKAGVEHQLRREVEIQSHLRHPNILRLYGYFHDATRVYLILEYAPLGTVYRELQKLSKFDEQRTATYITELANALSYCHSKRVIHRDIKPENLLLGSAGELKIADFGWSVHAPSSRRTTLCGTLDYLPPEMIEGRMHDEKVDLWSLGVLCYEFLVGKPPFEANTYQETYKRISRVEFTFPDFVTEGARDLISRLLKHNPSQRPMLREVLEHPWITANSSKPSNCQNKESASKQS
Chain of Fibroblast growth factor receptor 1 (P11362 whole entry, canonical isoform): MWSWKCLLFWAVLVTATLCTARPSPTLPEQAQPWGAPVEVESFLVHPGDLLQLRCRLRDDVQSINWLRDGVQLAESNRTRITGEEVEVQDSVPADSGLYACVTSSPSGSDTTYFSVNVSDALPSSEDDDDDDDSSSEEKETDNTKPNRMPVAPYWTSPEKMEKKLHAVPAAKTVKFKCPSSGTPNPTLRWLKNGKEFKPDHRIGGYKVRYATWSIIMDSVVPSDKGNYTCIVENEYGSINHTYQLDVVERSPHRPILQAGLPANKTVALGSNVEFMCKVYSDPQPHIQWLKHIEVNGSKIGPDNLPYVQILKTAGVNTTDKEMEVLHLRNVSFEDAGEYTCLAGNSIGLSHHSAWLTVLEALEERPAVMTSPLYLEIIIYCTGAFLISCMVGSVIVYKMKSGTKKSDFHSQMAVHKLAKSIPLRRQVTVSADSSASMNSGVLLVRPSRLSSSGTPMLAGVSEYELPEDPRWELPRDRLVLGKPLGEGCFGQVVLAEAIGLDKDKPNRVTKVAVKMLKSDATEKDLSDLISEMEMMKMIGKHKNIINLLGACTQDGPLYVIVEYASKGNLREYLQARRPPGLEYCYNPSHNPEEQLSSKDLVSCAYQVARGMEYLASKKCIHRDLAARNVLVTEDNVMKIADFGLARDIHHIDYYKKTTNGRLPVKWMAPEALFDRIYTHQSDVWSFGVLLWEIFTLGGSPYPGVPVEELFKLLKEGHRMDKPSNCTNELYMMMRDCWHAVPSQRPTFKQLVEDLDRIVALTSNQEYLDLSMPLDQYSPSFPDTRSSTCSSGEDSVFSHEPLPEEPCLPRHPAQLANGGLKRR
Chain of Hepatocyte growth factor receptor (Homo sapiens) (P08581 whole entry): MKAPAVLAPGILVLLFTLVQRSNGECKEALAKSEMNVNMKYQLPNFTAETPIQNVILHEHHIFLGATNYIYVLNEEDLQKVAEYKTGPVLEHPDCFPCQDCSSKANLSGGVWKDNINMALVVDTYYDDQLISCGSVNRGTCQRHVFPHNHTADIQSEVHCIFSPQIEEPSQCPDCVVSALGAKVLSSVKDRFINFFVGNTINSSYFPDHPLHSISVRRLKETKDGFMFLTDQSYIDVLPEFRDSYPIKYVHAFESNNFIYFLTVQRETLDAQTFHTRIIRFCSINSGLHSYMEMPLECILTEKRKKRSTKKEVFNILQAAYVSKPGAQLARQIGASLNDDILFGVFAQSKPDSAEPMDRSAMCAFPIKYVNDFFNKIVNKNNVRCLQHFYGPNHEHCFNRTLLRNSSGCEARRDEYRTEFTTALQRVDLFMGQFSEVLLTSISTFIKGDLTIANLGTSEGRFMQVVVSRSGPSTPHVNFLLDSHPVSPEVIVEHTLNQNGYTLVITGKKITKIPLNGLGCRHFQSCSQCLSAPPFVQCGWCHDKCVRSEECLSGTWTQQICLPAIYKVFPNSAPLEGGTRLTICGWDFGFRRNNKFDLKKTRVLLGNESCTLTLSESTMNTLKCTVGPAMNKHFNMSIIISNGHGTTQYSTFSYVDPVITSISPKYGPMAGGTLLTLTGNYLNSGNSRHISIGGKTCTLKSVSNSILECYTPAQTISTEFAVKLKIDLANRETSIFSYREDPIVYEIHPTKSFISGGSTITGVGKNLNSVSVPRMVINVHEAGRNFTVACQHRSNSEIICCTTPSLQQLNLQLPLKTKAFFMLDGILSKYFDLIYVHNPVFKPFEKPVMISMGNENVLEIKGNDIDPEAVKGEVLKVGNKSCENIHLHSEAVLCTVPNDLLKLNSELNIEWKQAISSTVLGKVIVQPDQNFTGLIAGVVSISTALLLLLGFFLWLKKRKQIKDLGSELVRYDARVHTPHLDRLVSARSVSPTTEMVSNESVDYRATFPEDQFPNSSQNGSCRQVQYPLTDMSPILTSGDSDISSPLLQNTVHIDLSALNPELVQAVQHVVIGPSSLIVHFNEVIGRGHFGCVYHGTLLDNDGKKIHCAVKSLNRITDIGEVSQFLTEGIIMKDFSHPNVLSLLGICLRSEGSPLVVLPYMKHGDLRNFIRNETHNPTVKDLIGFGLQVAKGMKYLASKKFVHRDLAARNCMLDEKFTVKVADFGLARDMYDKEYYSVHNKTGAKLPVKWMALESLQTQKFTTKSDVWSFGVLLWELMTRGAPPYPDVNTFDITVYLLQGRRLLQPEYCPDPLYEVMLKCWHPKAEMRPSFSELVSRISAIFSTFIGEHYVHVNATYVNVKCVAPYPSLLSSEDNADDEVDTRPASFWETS
Chain of Muscarinic acetylcholine receptor M4 (Homo sapiens) (P08173 whole entry): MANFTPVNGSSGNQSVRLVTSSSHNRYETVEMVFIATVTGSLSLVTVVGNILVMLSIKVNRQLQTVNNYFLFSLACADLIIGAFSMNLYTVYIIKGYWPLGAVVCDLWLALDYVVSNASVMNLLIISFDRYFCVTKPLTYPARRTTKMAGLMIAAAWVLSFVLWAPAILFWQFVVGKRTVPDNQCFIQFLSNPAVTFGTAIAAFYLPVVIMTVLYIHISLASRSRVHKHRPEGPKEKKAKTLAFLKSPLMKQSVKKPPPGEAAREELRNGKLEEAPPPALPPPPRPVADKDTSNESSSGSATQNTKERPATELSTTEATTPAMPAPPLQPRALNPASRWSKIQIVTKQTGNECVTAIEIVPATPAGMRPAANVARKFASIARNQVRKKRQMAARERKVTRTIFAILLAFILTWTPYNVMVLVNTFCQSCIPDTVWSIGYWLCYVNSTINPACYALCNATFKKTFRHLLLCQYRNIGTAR
Chain of Casein kinase I isoform alpha (P48729 whole entry, canonical isoform): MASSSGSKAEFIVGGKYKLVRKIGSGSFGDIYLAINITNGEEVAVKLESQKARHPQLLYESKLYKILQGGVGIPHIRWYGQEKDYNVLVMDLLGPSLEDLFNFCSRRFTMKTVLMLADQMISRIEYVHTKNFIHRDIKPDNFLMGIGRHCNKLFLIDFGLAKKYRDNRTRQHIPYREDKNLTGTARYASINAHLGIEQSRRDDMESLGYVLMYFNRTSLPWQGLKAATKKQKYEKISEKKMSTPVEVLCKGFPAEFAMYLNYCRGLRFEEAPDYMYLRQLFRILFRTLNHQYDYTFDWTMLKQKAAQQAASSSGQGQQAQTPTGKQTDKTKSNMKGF

`CC(C)Cn1c2ccc(Nc3ncccn3)cc2c2c3c(c4c(c21)CCc1nn(C)cc1-4)C(=O)NC3` [CEP-11981] gave a remaining at 2 h [1] of 65%, an inhibition [2] greater than 80% and an inhibition in vivo at 10 mg/kg [3] of 75%. For the same compound, the EC50 [4] was 8 nM, the Activity [5] was “Active” and the inhibition [6] was “Active”. It also gave an inhibition in vivo at 30 mg/kg [7] of 88%, an MSD [8] of 27.5 days and an MSD [9] of 25 days. The IC50 [10] was 140 nM, the Activity [11] was 0% and the Activity [12] was 50%. For the same compound, the Activity [13] was 10%, the IC50 [14] was 8 nM and the Activity [15] was 20%. It also gave an IC50 [16] of 71 nM, an MSD [17] of 20.5 days and a Papp [18] greater than 4 ×10⁻⁶ cm/s. It also gave an Activity [19] of 0%, an IC50 [20] of 5 nM and an IC50 [21] of 78 nM. For the same compound, the Activity [22] was 0%, the IC50 [23] was 42 nM and the IC50 [24] was 89 nM. For the same compound, the MSD [25] was 27.5 days, the EC50 [26] was 8 nM and the inhibition [27] was “Active”. The IC50 [28] was 13 nM, the IC50 [29] was 48 nM and the bioavailability [30] was 93%. The inhibition [31] was greater than 80%, the MSD [32] was 23 days and the clearance [33] was 18 mL/min/kg.
